Reference: PubChem BioAssay AID1259407 (Chemical Carcinogenesis Research Information System (CCRIS), 2018)
Calls of active or inactive are those of the source. The rule behind the calls is not given here.

Tested on: CCRIS mutagenicity, Ames/micronucleus/aberration tests
Assay: CCRIS mutagenicity studies
[1] = Test System: AMES SALMONELLA TYPHIMURIUM, Strain/Indicator: TA100, Metabolic Activation: NONE, Method: STANDARD PLATE

## CC(C)(C#N)N=NC(C)(C)C#N
Test System: AMES SALMONELLA TYPHIMURIUM, Strain/Indicator: TA98, Metabolic Activation: HAMSTER, LIVER, S-9, AROCLOR 1254, Method: PREINCUBATION
  mutagenic call: inactive; negative
Test System: AMES SALMONELLA TYPHIMURIUM, Strain/Indicator: TA98, Metabolic Activation: NONE, Method: PREINCUBATION
  mutagenic call: inactive; negative
Test System: AMES SALMONELLA TYPHIMURIUM, Strain/Indicator: TA98, Metabolic Activation: RAT LIVER S-9, PHENOBARBITAL AND BETA-NAPHTHOFLAVONE, Method: PREINCUBATION
  mutagenic call: inactive; negative
Test System: AMES SALMONELLA TYPHIMURIUM, Strain/Indicator: TA98, Metabolic Activation: RAT, LIVER, S-9, AROCLOR 1254, Method: PREINCUBATION
  mutagenic call: inactive; negative
Test System: AMES SALMONELLA TYPHIMURIUM, Strain/Indicator: TA100, Metabolic Activation: HAMSTER, LIVER, S-9, AROCLOR 1254, Method: PREINCUBATION
  mutagenic call: inactive; negative
Test System: AMES SALMONELLA TYPHIMURIUM, Strain/Indicator: TA100, Metabolic Activation: NONE, Method: PREINCUBATION
  mutagenic call: inactive; negative
Test System: AMES SALMONELLA TYPHIMURIUM, Strain/Indicator: TA100, Metabolic Activation: RAT LIVER S-9, PHENOBARBITAL AND BETA-NAPHTHOFLAVONE, Method: PREINCUBATION
  mutagenic call: inactive; negative
Test System: AMES SALMONELLA TYPHIMURIUM, Strain/Indicator: TA100, Metabolic Activation: RAT, LIVER, S-9, AROCLOR 1254, Method: PREINCUBATION
  mutagenic call: inactive; negative
Test System: AMES SALMONELLA TYPHIMURIUM, Strain/Indicator: TA1535, Metabolic Activation: HAMSTER, LIVER, S-9, AROCLOR 1254, Method: PREINCUBATION
  mutagenic call: inactive; negative
Test System: AMES SALMONELLA TYPHIMURIUM, Strain/Indicator: TA1535, Metabolic Activation: NONE, Method: PREINCUBATION
  mutagenic call: inactive; negative
Test System: AMES SALMONELLA TYPHIMURIUM, Strain/Indicator: TA1535, Metabolic Activation: RAT LIVER S-9, PHENOBARBITAL AND BETA-NAPHTHOFLAVONE, Method: PREINCUBATION
  mutagenic call: inactive; negative
Test System: AMES SALMONELLA TYPHIMURIUM, Strain/Indicator: TA1535, Metabolic Activation: RAT, LIVER, S-9, AROCLOR 1254, Method: PREINCUBATION
  mutagenic call: inactive; negative
Test System: AMES SALMONELLA TYPHIMURIUM, Strain/Indicator: TA1537, Metabolic Activation: HAMSTER, LIVER, S-9, AROCLOR 1254, Method: PREINCUBATION
  mutagenic call: inactive; negative
Test System: AMES SALMONELLA TYPHIMURIUM, Strain/Indicator: TA1537, Metabolic Activation: NONE, Method: PREINCUBATION
  mutagenic call: inactive; negative
Test System: AMES SALMONELLA TYPHIMURIUM, Strain/Indicator: TA1537, Metabolic Activation: RAT LIVER S-9, PHENOBARBITAL AND BETA-NAPHTHOFLAVONE, Method: PREINCUBATION
  mutagenic call: inactive; negative
Test System: AMES SALMONELLA TYPHIMURIUM, Strain/Indicator: TA1537, Metabolic Activation: RAT, LIVER, S-9, AROCLOR 1254, Method: PREINCUBATION
  mutagenic call: inactive; negative
Test System: AMES SALMONELLA TYPHIMURIUM, Strain/Indicator: TA1538, Metabolic Activation: HAMSTER, LIVER, S-9, AROCLOR 1254, Method: PREINCUBATION
  mutagenic call: inactive; negative
Test System: AMES SALMONELLA TYPHIMURIUM, Strain/Indicator: TA1538, Metabolic Activation: NONE, Method: PREINCUBATION
  mutagenic call: inactive; negative
Test System: AMES SALMONELLA TYPHIMURIUM, Strain/Indicator: TA1538, Metabolic Activation: RAT LIVER S-9, PHENOBARBITAL AND BETA-NAPHTHOFLAVONE, Method: PREINCUBATION
  mutagenic call: inactive; negative
Test System: AMES SALMONELLA TYPHIMURIUM, Strain/Indicator: TA1538, Metabolic Activation: RAT, LIVER, S-9, AROCLOR 1254, Method: PREINCUBATION
  mutagenic call: inactive; negative
Test System: E.COLI, Strain/Indicator: WP2UVRA, Metabolic Activation: NONE, Method: PREINCUBATION
  mutagenic call: inactive; negative
Test System: E.COLI, Strain/Indicator: WP2UVRA, Metabolic Activation: RAT LIVER S-9, PHENOBARBITAL AND BETA-NAPHTHOFLAVONE, Method: PREINCUBATION
  mutagenic call: inactive; negative
Test System: MOUSE LYMPHOMA, Strain/Indicator: L5178Y (TK+/TK-), Metabolic Activation: NONE, Method: SUSPENSION/PLATE
  mutagenic call: inactive; negative. reevaluation of results: negative
Test System: MOUSE LYMPHOMA, Strain/Indicator: L5178Y (TK+/TK-), Metabolic Activation: RAT, LIVER, S-9, AROCLOR 1254, Method: SUSPENSION/PLATE
  mutagenic call: inactive; negative. reevaluation of results: negative

## CCOP(=O)(OCC)N1[C@@H]2c3ccccc3-c3ccccc3[C@@H]21 (stereo not given in full)
[1]
  mutagenic call: active; positive
Test System: CHINESE HAMSTER V-79, Strain/Indicator: V-79/6-THIOGUANINE, Metabolic Activation: NONE, Method: STANDARD PLATE
  mutagenic call: active; positive

## Cc1ccc(N=Nc2c(O)c(C(=O)O)cc3ccccc23)c(S(=O)(=O)O)c1
Test System: AMES SALMONELLA TYPHIMURIUM, Strain/Indicator: TA98, Metabolic Activation: NONE, Method: STANDARD PLATE
  mutagenic call: inactive; negative
Test System: AMES SALMONELLA TYPHIMURIUM, Strain/Indicator: TA98, Metabolic Activation: RAT LIVER S-9, AROCLOR 1254, Method: STANDARD PLATE
  mutagenic call: inactive; negative
[1]
  mutagenic call: inactive; negative
Test System: AMES SALMONELLA TYPHIMURIUM, Strain/Indicator: TA100, Metabolic Activation: RAT LIVER S-9, AROCLOR 1254, Method: STANDARD PLATE
  mutagenic call: inactive; negative
